Measured values published in article PMC9499467, “Phenanthroindolizidine Alkaloids Isolated from Tylophora ovata as Potent Inhibitors of Inflammation, Spheroid Growth, and Invasion of Triple-Negative Breast Cancer” (International Journal of Molecular Sciences, 2022).
Read-outs that look alike come from different tables or passages of the source.

Assays:
[1] = system: IκBα; assay: Western blot of IκBα after TNFα stimulation; type: cell-based; conditions: MDA-MB-468-UnaG
Experimental: We investigated NFκB-blocking by determining the protein expression of its cytoplasmic inhibitor IκBα in MDA-MB-468-UnaG cells. On day 1, the cells were seeded into a 6 well plate (Greiner; #657160). On day 2, the cells were either left untreated (normoxia) or exposed to 100 µM CoCl2 (hypoxia) (Sigma-Aldrich; #C8661). On day 3, the medium was replaced, and cells were either exposed to DMSO (Roth; #A994.1) alone at maximal 0.1% or to compound (1s) at the concentrations 2 nM, 5 nM, 10 nM, 20 nM, or 50 nM for 1 h. An amount of 10 ng/mL TNFα was applied as a positive control. […] An amount of 20 µg of the total protein was separated on a ready-to-use 12% SDS-gel (Bio-Rad, Düsseldorf, Germany; #456-1044). […] For protein detection via chemiluminescence, the membrane was incubated in HRP-substrate (Thermo Fisher Scientific; #34577) for 5 min and the signal was recorded using the Fusion Pulse TS microscope (VILBER, Eberhardzell; Germany). Signal quantification was performed using the software EvolutionCapt (VILBER). […]
Figure 8 Compound (1s) stabilizes IκBα under normoxic and under hypoxic conditions. […] Statistical difference vs. TNFα was calculated with two-way ANOVA (* p < 0.05, ** p < 0.01, *** p < 0.001). […]

[2] = system: MDA-MB-468-UnaG; assay: 2D cell viability in MDA-MB-468-UnaG under normoxia or CoCl2-simulated hypoxia
[3] = system: 3D co-culture spheroids of MDA-MB-231 and primary murine CAFs; assay: 3D growth studies, spheroid size of co-culture spheroids; type: cell-based, human MDA-MB-231; conditions: 100 nM, 72 h
Experimental: To emulate the TNBC microenvironment, 3D spheroids composed of MDA-MB-231 and CAFs at a ratio of 1:2 in a collagen-based matrix were generated. The culture medium of both cell lines was mixed (DMEM:RPMI 1640 (1:1) + 12.5% FCS + 1% PS) and supplemented with 0.05 mg/mL collagen type I (Thermo Fisher Scientific; #A1048301). On day 1, 3000 cells were seeded into a low-attachment 96 well plate (Greiner; #650970). Spheroids were grown for 72 h before proceeding with compound treatment on day 4, and analysis on day 7 according to the “Spheroid immunostaining”, “3D cell viability”, or “3D growth” studies presented in the results section.
Co-culture spheroids were generated for 72 h before they were exposed to either DMSO (Roth; #A994.1) alone at maximal 0.1%, 100 nM paclitaxel (Santa Cruz Biotechnology; #sc-201439), or 100 nM of compound (1) for another 72 h. At least three spheroids per treatment group were analyzed. For that purpose, brightfield images of the spheroids were acquired at 100× g magnification using the microscope Axio Vert.A1 (Zeiss). The spheroid surface area was quantified in brightfield images using Fiji (open-source software; version 1.52i) and was further defined as spheroid size. In each individual experiment spheroid size was normalized to the smallest (which was set to 0%) and to the largest spheroids (which was set to 100%).

[4] = system: CAFs; assay: 2D cell viability in CAFs; type: cell-based, murine; conditions: Mus musculus, 24 h, read-out: Reduction of Cell Viability 24 h IC50 in CAFs
Experimental: Table S1 IC50-values for reduction of cell viability determined in CAFs.
Compound Cell Viability 1
1 Cell viability of CAFs was determined 24 h post-treatment with the 2D cell viability assay. CAFs were seeded at a cell density of 2.5 × 10^3 cells per well. Compound concentration was applied in triplicates in a four-fold serial dilution starting at 1000 nM. 2 Duration of treatment. 3 Mean ± SD […]
50 µM. 4 Mean ± SD (n = 3). 5 Mean ± SD (n = 2).

[5] = system: HIF; parameters: method as in earlier work; conditions: luminal breast cancer cell line T47D; ref 62 (Chen et al.); cited from earlier work

COc1ccc2c3c(c4cc(OC)c(OC)cc4c2c1)CN1CCCC1C3O (centres unmarked) [Compound (1s), O-methyltylophorinidine]
TNFα-mediated IκBα degradation ([1]; CoCl2-simulated hypoxia, 20 nM): suppressed
IκBα protein level after TNFα ([1]; normoxia, 20 nM pre-incubation 1 h, TNFα 10 ng/mL 30 min): stabilized IκBα
IC50 ([2]; 24 h, read-out: cell viability IC50, hypoxia): 6.5 nM
decrease of cytotoxic effects by hypoxia (factor) ([2]; hypoxia vs normoxia, MDA-MB-468-UnaG): barely affected
IC50 ([2]; read-out: cell viability IC50, normoxia): 6.7 nM

COc1ccc2c3c(c4cc(OC)c(OC)cc4c2c1)CN1CCCC1C3O (centres unmarked) [Compound (1), O-methyltylophorinidine]
reduction of spheroid growth compared to untreated spheroids [3]: 40%
IC50 [4]: 2.7 ± 0.9 nM
HIF induction under low oxygen level [5]: blockade of HIF induction
